# Assay results: patent publication US20140235576A1, “PYRROLIDINE-2-CARBOXYLIC ACID DERIVATIVES AS IGLUR ANTAGONISTS” (Kobenhavns Universitet, priority 2013, published 2014)
# Where two headings read alike, the source gives them in different places. No end group written: not given here.
# How the values were obtained:
# [1] = molecular target: GluN1/GluN2B (Homo sapiens, UniProt Q13224); conditions: cited from earlier work
# [2] = molecular target: NMDA receptors; conditions: native iGluR; values taken from reference 49; cited from earlier work
# [3] = molecular target: KA receptors; conditions: native iGluR; values taken from reference 49; cited from earlier work
# [4] = molecular target: AMPA receptors; conditions: native iGluR; values taken from reference 49; cited from earlier work
# [5] = molecular target: T1, GluK3 (Rattus norvegicus, UniProt P42264); assay: Radioligand binding at cloned homomeric GluK3; conditions: cloned homomeric subtype
# T1 construct: expressed in transfected cells
# T1 sequence (P42264 32-919): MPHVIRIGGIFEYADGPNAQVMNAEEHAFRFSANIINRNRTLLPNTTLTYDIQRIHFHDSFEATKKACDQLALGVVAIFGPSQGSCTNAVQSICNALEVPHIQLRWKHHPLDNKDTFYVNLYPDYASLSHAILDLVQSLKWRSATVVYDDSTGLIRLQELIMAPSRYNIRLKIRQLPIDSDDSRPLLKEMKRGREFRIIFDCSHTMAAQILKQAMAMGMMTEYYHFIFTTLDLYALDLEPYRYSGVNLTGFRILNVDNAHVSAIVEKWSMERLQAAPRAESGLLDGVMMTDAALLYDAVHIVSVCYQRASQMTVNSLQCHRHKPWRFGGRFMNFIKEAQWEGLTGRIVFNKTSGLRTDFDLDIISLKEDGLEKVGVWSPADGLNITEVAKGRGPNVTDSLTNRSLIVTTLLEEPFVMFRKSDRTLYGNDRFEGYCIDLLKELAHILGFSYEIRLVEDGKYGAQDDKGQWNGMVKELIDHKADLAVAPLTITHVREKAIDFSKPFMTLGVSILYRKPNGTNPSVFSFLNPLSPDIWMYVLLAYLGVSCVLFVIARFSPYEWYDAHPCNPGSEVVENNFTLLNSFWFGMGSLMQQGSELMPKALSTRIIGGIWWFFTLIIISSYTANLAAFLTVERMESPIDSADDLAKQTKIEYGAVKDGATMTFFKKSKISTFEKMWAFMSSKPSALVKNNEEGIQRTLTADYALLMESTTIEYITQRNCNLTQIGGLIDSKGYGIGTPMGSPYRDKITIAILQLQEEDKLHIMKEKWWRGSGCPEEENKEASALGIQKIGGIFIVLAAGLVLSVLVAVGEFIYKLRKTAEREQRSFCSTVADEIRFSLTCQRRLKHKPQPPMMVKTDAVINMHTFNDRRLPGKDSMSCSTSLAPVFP
# Source text: (§1) Analog 2 was characterized pharmacologically in radio ligand binding assays at native iGluRs (rat synaptosomes) and cloned homomeric subtypes, GluK1-3 (Table 1).
# [6] = molecular target: GluK2 (UniProt P42260); assay: Radioligand binding at cloned homomeric GluK2; conditions: cloned homomeric subtype
# Source text: as §1
# [7] = molecular target: KA receptors; assay: Radioligand binding at native KA receptors (rat synaptosomes); conditions: native iGluRs
# Source text: as §1
# [8] = molecular target: AMPA receptors; assay: Radioligand binding at native AMPA receptors (rat synaptosomes); conditions: native iGluRs
# Source text: as §1
# [9] = molecular target: NMDA receptors; assay: Radioligand binding at native NMDA receptors (rat synaptosomes); conditions: native iGluRs
# Source text: as §1
# [10] = test system: GluN1/GluN2A-D; assay: Functional assay for subtypes GluN1/GluN2A-D; format: biochemical
# [11] = molecular target: GluK1 (UniProt P22756); assay: Radioligand binding at cloned homomeric GluK1; conditions: cloned homomeric subtype
# Source text: as §1
# Sequence of GluN1/GluN2B (Q13224 27-1484, species assumed, other chains not shown): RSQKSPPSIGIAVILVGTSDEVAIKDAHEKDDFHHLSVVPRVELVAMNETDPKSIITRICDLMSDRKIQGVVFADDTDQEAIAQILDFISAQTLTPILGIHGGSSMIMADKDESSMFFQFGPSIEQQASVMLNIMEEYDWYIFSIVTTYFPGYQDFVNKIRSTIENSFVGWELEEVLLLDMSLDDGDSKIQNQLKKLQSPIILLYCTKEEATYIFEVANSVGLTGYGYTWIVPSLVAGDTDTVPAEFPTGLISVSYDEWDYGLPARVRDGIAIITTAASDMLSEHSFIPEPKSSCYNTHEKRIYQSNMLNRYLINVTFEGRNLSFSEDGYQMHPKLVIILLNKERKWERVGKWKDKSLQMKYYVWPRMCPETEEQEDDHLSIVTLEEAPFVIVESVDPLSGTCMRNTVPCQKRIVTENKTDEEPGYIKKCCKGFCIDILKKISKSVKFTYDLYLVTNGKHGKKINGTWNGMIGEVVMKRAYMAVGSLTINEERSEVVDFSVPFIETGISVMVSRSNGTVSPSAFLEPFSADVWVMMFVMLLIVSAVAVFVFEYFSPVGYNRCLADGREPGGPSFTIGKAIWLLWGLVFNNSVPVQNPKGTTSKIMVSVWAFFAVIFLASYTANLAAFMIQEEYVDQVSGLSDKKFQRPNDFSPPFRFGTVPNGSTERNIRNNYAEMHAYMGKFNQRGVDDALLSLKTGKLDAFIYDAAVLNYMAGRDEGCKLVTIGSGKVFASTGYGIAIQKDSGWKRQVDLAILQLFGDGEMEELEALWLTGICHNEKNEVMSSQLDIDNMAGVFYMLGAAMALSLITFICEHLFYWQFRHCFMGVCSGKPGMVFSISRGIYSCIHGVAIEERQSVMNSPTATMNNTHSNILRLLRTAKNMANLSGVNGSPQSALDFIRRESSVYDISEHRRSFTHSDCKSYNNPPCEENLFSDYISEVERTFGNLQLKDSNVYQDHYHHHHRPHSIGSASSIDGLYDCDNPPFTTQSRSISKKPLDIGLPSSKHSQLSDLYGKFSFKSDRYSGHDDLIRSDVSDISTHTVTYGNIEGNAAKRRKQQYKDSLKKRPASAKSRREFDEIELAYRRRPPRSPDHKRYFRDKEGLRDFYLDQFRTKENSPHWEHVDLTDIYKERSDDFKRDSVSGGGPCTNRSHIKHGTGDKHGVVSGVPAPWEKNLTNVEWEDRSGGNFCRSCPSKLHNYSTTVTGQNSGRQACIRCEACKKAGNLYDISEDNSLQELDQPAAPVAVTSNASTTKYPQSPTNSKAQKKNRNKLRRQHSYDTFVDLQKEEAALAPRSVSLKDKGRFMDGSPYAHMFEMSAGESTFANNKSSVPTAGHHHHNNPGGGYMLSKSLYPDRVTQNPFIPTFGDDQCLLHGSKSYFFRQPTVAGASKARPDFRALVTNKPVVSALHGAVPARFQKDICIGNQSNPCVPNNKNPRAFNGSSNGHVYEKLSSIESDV
compound,measurement,setting,value
"Conantokin G (GEEELQENQELIREKSN; ends and bridges not checked; UniProt P07231 81-97, looked up)",preference for GluN1/GluN2B over GluN1/GluN2C and GluN1/2D,[1],10 fold
same,selectivity for GluN1/GluN2B over GluN1GluN2A,[1],100 fold
O=C(O)c1cccc([C@H]2CCN[C@@H]2C(=O)O)c1 [Analog 1],Ki,[2],6 µM
same,KA IC50,[3],22 µM
same,IC50,[4],51 µM
"O=C(O)c1ccc([C@H]2CCN[C@@H]2C(=O)O)cc1 [Analog 2, (2S,3R)-3-(4-Carboxyphenyl)pyrrolidine-2-carboxylic Acid]",Ki,[5],> 100 µM
same,Ki,[6],> 100 µM
same,KA IC50,[7],>100 µM
same,IC50,[8],> 100 µM
same,Ki,[9],8.5 µM
same,"NMDA, value in square brackets under Ki (pKi ± spread)",[9],[5.07 ± 0.04]
same,IC50,[9]; read-out: affinity for the NMDA receptors (IC50),8.5 µM
same,functional character at GluN1/GluN2A-D,[10],antagonist
same,Ki,[11],> 100 µM
